Here are results for 32 molecules from patent US20250059164A1, “IRAK DEGRADERS AND USES THEREOF” (Kymera Therapeutics, Inc., priority 2023, published 2025).

For data set [1], the target named is T1, IRAK4 (Homo sapiens, UniProt Q9NWZ3).
T1 construct: endogenous in cells; host or cells: OCI-LY10
T1 sequence (Q9NWZ3 1-460): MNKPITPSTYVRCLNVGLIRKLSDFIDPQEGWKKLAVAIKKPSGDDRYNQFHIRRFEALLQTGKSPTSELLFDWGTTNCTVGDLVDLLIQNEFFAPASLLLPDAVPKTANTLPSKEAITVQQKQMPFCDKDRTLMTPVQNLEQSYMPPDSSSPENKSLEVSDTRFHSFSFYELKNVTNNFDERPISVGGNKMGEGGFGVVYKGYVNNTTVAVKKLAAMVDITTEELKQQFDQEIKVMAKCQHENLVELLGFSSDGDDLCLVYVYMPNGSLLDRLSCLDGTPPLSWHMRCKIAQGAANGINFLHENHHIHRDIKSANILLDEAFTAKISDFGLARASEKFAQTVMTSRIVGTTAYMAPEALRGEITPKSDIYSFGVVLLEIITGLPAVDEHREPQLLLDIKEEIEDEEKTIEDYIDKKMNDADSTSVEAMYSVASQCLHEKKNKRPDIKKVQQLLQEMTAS
The experiment in a line: IRAK4 MSD degradation in OCI-LY10. In kind it is cell-based. Particulars: OCI-LY10 cells, 24 hrs, Meso Scale Discovery. In outline:
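Remaining IRAK4 protein measured by Meso Scale Discovery electrochemiluminescence sandwich assay on lysates of OCI-LY10 cells. Cells were exposed for 4 to 24 hours (37° C., 5% CO2) to eight 1:3-diluted concentrations starting at 1 to 10 μM. DC50 derived by three-parameter logistic fitting.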

Data set [2] is described as follows: Rodent pharmacokinetics (rat PK). In kind it is in vivo. Particulars: po, dosed intravenously or orally by gavage, plasma, read-out: F % (bioavailability). In outline: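 F % is reported as a letter code: A for ≥5%, B for ≤5%. It was derived from rat plasma profiles after intravenous or oral gavage dosing, with jugular vein sampling from predose to 24 h (5 min point for IV only).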

By DC50 is commonly meant the concentration at which degradation of the target reaches its halfway point. Higher therefore signals a less potent degrader. Usually bioavailability stands for the share of a dose that reaches the circulation, judged against a reference dose that is usually intravenous. For `Cn1c(=O)n(C2CCC(=O)NC2=O)c2cccc([C@@H]3CCN(C[C@H]4CC[C@H](n5cc6cc(NC(=O)c7cncc(OC(F)F)n7)ncc6n5)CC4)C[C@H]3F)c21` (stereo partly shown) [I-337], in data set [1], the DC50 is below 10 nM. Further, in data set [2], the bioavailability is at most 5%.
The like results for `COc1cc2nn([C@H]3CC[C@H](CN4CC[C@@H](c5cccc6c5n(C)c(=O)n6C5CCC(=O)NC5=O)[C@H](F)C4)CC3)cc2cc1C(=O)Nc1cncc(C(F)(F)F)n1` (stereo partly shown) [I-290] were, in that order, below 10 nM and at most 5%.
The corresponding values for `COc1cc2nn([C@H]3CC[C@H](CN4CCC5(CN(c6cccc7c6n(C)c(=O)n7C6CCC(=O)NC6=O)C5)C(F)(F)C4)CC3)cc2cc1NC(=O)c1cncc(C)c1` (stereo partly shown) [I-243] are below 10 nM and at most 5%.
The like results for `COc1cc2nn([C@H]3CC[C@H](CN4CCC5(CN(c6c(F)ccc7c6n(C)c(=O)n7C6CCC(=O)NC6=O)C5)C(F)(F)C4)CC3)cc2cc1NC(=O)c1cncc(C#N)c1` (stereo partly shown) [I-260] were, in that order, below 10 nM and at most 5%.
Take `Cc1cc(C(=O)Nc2ccc3nn([C@H]4CC[C@H](CN5CC[C@@H](c6cccc7c6n(C)c(=O)n7C6CCC(=O)NC6=O)[C@H](F)C5)CC4)cc3c2)nc(C(F)(F)F)c1` (stereo partly shown) [I-395]: the DC50 in data set [1] was above 200 nM. In data set [2], the bioavailability was at least 5%.
The corresponding values for `Cn1c(=O)n(C2CCC(=O)NC2=O)c2ccc(F)c(N3CC4(CCN(C[C@H]5CC[C@H](n6cc7cc(NC(=O)c8cncc(C#N)c8)c(C(C)(C)O)cc7n6)CC5)CC4(F)F)C3)c21` (stereo partly shown) [I-388] are below 10 nM and at most 5%.
The corresponding values for `COc1cc2nn([C@H]3CC[C@H](CN4CC[C@@H](c5cccc6c5n(C)c(=O)n6C5CCC(=O)NC5=O)[C@H](F)C4)CC3)cc2cc1NC(=O)c1cccc(C(F)(F)F)c1` (stereo partly shown) [I-246] are below 10 nM and at most 5%.
The like results for `Cn1c(=O)n(C2CCC(=O)NC2=O)c2cccc(N3CC4(CCN(C[C@H]5CC[C@H](n6cc7cc(NC(=O)c8cncc(C(F)(F)F)n8)c(C(C)(C)O)cc7n6)CC5)CC4(F)F)C3)c21` (stereo partly shown) [I-326] were, in that order, below 10 nM and at least 5%.
With `Cn1c(=O)n(C2CCC(=O)NC2=O)c2cccc(C#CCN3CCN(C[C@H]4CC[C@H](n5cc(NC(=O)c6cnn7ccc(N8C[C@H]9C[C@@H]8CO9)nc67)c(C(F)F)n5)CC4)C(=O)C3)c21` (stereo partly shown) [I-185], in data set [1], the DC50 is below 10 nM. The bioavailability in data set [2] was at most 5%.
The like results for `Cn1c(=O)n(C2CCC(=O)NC2=O)c2cccc([C@@H]3CCN(C[C@H]4CC[C@H](n5cc6cc(NC(=O)c7cc(C(F)(F)F)cnn7)ccc6n5)CC4)C[C@H]3F)c21` (stereo partly shown) [I-175] were, in that order, above 200 nM and at most 5%.
The corresponding values for `COc1ccc2c(c1N1CC3(CCN(C[C@H]4CC[C@H](c5nc6cc(C(C)(C)O)c(NC(=O)c7cccc(C(F)(F)F)n7)cc6s5)CC4)CC3(F)F)C1)n(C)c(=O)n2C1CCC(=O)NC1=O` (stereo partly shown) [I-414] are above 200 nM and at most 5%.
The corresponding values for `COc1cc2nn([C@H]3CC[C@H](CN4CCC5(CCN(c6cccc7c6n(C)c(=O)n7C6CCC(=O)NC6=O)CC5)C(F)(F)C4)CC3)cc2cc1NC(=O)c1cncc(F)c1` (stereo partly shown) [I-127] are below 10 nM and at most 5%.
In turn, `COc1cc2nn([C@H]3CC[C@H](CN4CC[C@@H](c5cccc6c5n(C)c(=O)n6C5CCC(=O)NC5=O)[C@H](F)C4)CC3)cc2cc1NC(=O)c1cncc(C(F)F)c1` (stereo partly shown) [I-271] had a DC50 in data set [1] below 10 nM. In addition, in data set [2], the bioavailability was at most 5%.
Take `CN(C[C@H]1CC[C@H](n2cc(NC(=O)c3cnn4cccnc34)c(C(F)F)n2)CC1)[C@H]1CCN(c2cccc3c2n(C)c(=O)n3C2CCC(=O)NC2=O)C[C@@H]1F` (single isomer, unassigned) [I-280]: the DC50 in data set [1] is below 10 nM. The bioavailability in data set [2] is at least 5%.
The corresponding values for `Cn1c(=O)n(C2CCC(=O)NC2=O)c2cccc([C@@H]3CCN(C[C@H]4CC[C@H](c5cn6cc(NC(=O)c7cccc(C(F)(F)F)n7)ccc6n5)CC4)C[C@H]3F)c21` (stereo partly shown) [I-262] are below 10 nM and at most 5%.
The corresponding values for `Cn1cc(Cl)c(C(=O)Nc2ccc3nn([C@H]4CC[C@H](CN5CC[C@@H](c6cccc7c6n(C)c(=O)n7C6CCC(=O)NC6=O)[C@H](F)C5)CC4)cc3c2)n1` (stereo partly shown) [I-155] are above 200 nM and at most 5%.
The corresponding values for `Cc1nc(C(=O)Nc2ccc3nn([C@H]4CC[C@H](CN5CC[C@@H](c6cccc7c6n(C)c(=O)n7C6CCC(=O)NC6=O)[C@H](F)C5)CC4)cc3c2)co1` (stereo partly shown) [I-148] are below 10 nM and at most 5%.
`CN(C[C@H]1CC[C@H](c2nc3cc(C(C)(C)O)c(NC(=O)c4cncc(C(F)(F)F)c4)cc3s2)CC1)[C@H]1CCN(c2cccc3c2n(C)c(=O)n3C2CCC(=O)NC2=O)C[C@H]1F` (single isomer, unassigned) [I-162] registered a DC50 in data set [1] below 10 nM. In data set [2], the bioavailability is at least 5%.
The like results for `Cn1c(=O)n(C2CCC(=O)NC2=O)c2ccc(F)c([C@H]3CCN(C[C@H]4CC[C@H](n5cc6cc(NC(=O)c7cncc(C#N)c7)c(C(C)(C)O)cc6n5)CC4)CC3(F)F)c21` (single isomer, unassigned) [I-383] were, in that order, below 10 nM and at most 5%.
The corresponding values for `COc1cc2nn([C@H]3CC[C@H](CN4CCC5(CN(c6cccc7c6n(C)c(=O)n7C6CCC(=O)NC6=O)C5)C(F)(F)C4)CC3)cc2cc1NC(=O)c1cccc(C(F)(F)F)c1` (stereo partly shown) [I-255] are below 10 nM and at most 5%.
The corresponding values for `Cn1c(=O)n(C2CCC(=O)NC2=O)c2cccc([C@@H]3CCN(C[C@H]4CC[C@H](n5cc(NC(=O)c6cnn7ccc(N8C[C@H]9C[C@@H]8CO9)nc67)c(C(F)F)n5)CC4)C[C@H]3F)c21` (single isomer, unassigned) [I-329] are below 10 nM and at most 5%.
For `Cn1c(=O)n(C2CCC(=O)NC2=O)c2cccc([C@@H]3CCN(C[C@H]4CC[C@H](n5cc6cc(NC(=O)c7cncc(C(F)F)n7)ncc6n5)CC4)C[C@H]3F)c21` (stereo partly shown) [I-321], the DC50 in data set [1] is below 10 nM. Also, the bioavailability in data set [2] is at most 5%.
With `CN(C[C@H]1CC[C@H](c2nc3cc(C(C)(C)O)c(NC(=O)c4cncc(C(F)(F)F)n4)cc3o2)CC1)[C@@H]1CCN(c2cccc3c2n(C)c(=O)n3C2CCC(=O)NC2=O)C[C@H]1F` (single isomer, unassigned) [I-297], the DC50 in data set [1] was 10 to 100 nM. For the same molecule, in data set [2], the bioavailability is at least 5%.
For the molecule `Cn1c(=O)n(C2CCC(=O)NC2=O)c2cccc([C@@H]3CCN(C[C@H]4CC[C@H](c5nc6cc(C(C)(C)O)c(NC(=O)c7cccc(C(F)(F)F)c7)cc6s5)CC4)C[C@H]3F)c21` (stereo partly shown) [I-169], in data set [1], the DC50 was below 10 nM. In data set [2], the bioavailability is at most 5%.
The like results for `CN(C[C@H]1CC[C@H](c2nc3cc(C(C)(C)O)c(NC(=O)c4cccc(C(F)(F)F)n4)cc3s2)CC1)[C@@H]1CCN(c2cccc3c2n(C)c(=O)n3C2CCC(=O)NC2=O)C[C@H]1F` (single isomer, unassigned) [I-238] were, in that order, below 10 nM and at least 5%.
In the case of `Cn1c(=O)n(C2CCC(=O)NC2=O)c2cccc(N3CC4(CCN(C[C@H]5CC[C@H](c6nc7cc(C(C)(C)O)c(NC(=O)c8cccc(C(F)(F)F)n8)cc7s6)CC5)CC4(F)F)C3)c21` (stereo partly shown) [I-409], in data set [1], the DC50 lay in the range of 10 to 100 nM. Moreover, in data set [2], the bioavailability is at least 5%.
The like results for `Cn1c(=O)n(C2CCC(=O)NC2=O)c2cccc([C@@H]3CCN(C[C@H]4CC[C@H](n5cc6cc(NC(=O)c7cc(C(F)(F)F)ccn7)ccc6n5)CC4)C[C@H]3F)c21` (stereo partly shown) [I-134] were, in that order, above 200 nM and at least 5%.
The like results for `CN(C[C@H]1CC[C@H](c2nc3cc(C(C)(C)O)c(NC(=O)c4cncc(C(F)(F)F)c4)cc3s2)CC1)[C@@H]1CCN(c2cccc3c2n(C)c(=O)n3C2CCC(=O)NC2=O)C[C@H]1F` (single isomer, unassigned) [I-159] were, in that order, 10 to 100 nM and at least 5%.
`Cn1c(=O)n(C2CCC(=O)NC2=O)c2cccc(N3CC[C@H](NC[C@H]4CC[C@H](n5cc(NC(=O)c6cnn7ccc(N8C[C@H]9C[C@@H]8CO9)nc67)c(C(F)F)n5)CC4)[C@@H](F)C3)c21` (stereo partly shown) [I-135] came in with a DC50 in data set [1] below 10 nM. For the same molecule, in data set [2], the bioavailability is at least 5%.
The corresponding values for `Cn1c(=O)n(C2CCC(=O)NC2=O)c2cccc(N3CCC4(CCN(C[C@H]5CC[C@H](c6nc7cc(C(C)(C)O)c(NC(=O)c8cccc(C(F)(F)F)n8)cc7s6)CC5)CC4(F)F)CC3)c21` (stereo partly shown) [I-407] are 10 to 100 nM and at most 5%.
The like results for `Cc1cncc(C(=O)Nc2cc3cn([C@H]4CC[C@H](CN5CCC6(CN(c7cccc8c7n(C)c(=O)n8C7CCC(=O)NC7=O)C6)C(F)(F)C5)CC4)nc3cc2C(C)(C)O)c1` (stereo partly shown) [I-342] were, in that order, below 10 nM and at most 5%.
In data set [1], `Cc1nn(C2CCC(=O)NC2=O)c2cccc([C@@H]3CCN(C[C@H]4CC[C@H](n5cc6cc(NC(=O)c7cncc(C(F)(F)F)n7)ncc6n5)CC4)C[C@H]3F)c12` (single isomer, unassigned) [I-340] yielded a DC50 of 10 to 100 nM. For the same molecule, in data set [2], the bioavailability was at least 5%.
